The melting point is the temperature of the solid-liquid transition. The compound `NNc1cccc2ccccc12` had a melting point of 117 °C. Turning to `CC1(C)CC(=O)C2=C(C1)Nc1ccc3ccccc3c1C2c1ccc(F)cc1` (stereo not drawn), the melting point is 204 °C.

With `c1ccc2c(c1)nnc1ccccc12`, the melting point was 158 °C.

Regarding `ON=Cc1cc(Br)c(O)c(Br)c1`, the melting point was 198 to 201 °C.

On to `CCCCCCCCCCCCSCCCCCCCCCCCC`, for which the melting point fell in the range of 36 to 43 °C. The value for `O=[N+]([O-])c1c(Cl)ccc(O)c1Cl` was 87 °C. The compound `Cc1c(C=NO)c(=O)n(-c2ccccc2)n1C` registered a melting point of 216 to 219 °C.

As for `CCCCCCCCCCCCCCOc1ccccc1NC(=O)c1cc(Oc2ccc([N+](=O)[O-])cc2CN(C(=O)Cl)C(C)C)c2ccccc2c1O`, the melting point is 109 to 116 °C. Regarding `CC1(N)CCC(C(C)(C)N)CC1` (stereo not drawn), the melting point was -45 °C.

Regarding `C1CCCCNCCC1`, the melting point was -19 °C. `O=C(C1CCCNC1)N1CCCC1` (stereo not drawn) came in with a melting point of 57 to 64 °C. The compound `CC(C)OC(N)=O` showed a melting point of 93 °C.

`O=C1OC(=O)c2cc3ccccc3cc21`: the melting point turned out to be 249 °C.

The compound `CC12CCC(c3cn(-c4ccccc4)nc31)C2(C)C` (stereo not drawn) showed a melting point of 125 °C. The value for `c1ccc([C@@H]2COC(c3cccc(C4=N[C@H](c5ccccc5)CO4)n3)=N2)cc1` was 171 to 175 °C. The value for `CCC(=C(CC)c1ccc(OC)cc1)c1ccc(OC)cc1` was 124 °C; that for `Cc1ccc2c(c1)/C(=N/NC(N)=O)CC2C` (stereo not drawn) was 227 °C.

Compound `Cc1nc(-c2ccccc2)sc1S(=O)(=O)Cl` registered a melting point of 76 to 78 °C. `O=Cc1c(Cl)[nH]n(-c2ccccc2)c1=O`: the melting point was found to be 167 °C. In the case of `CC(Br)C(=O)O` (stereo not drawn), the melting point was determined as 25 °C. Compound `CC1(C)C2CC[C@]1(CS(=O)(=O)O)C(=O)C2` yielded a melting point of 200 °C. `CCSC#N`: the melting point is -85.5 °C.

`NCc1ccc2c(Br)cccc2c1` came in with a melting point of 111 to 112 °C. The compound `O=C(OCCOC(=O)C(Cl)(Cl)Cl)C(Cl)(Cl)Cl` came in with a melting point of 40 °C. Turning to `COC(=O)c1ccc(Cl)c(Cl)c1`, the melting point was found to be 45 °C. `CCOC(=O)/C(=N\Nc1cc(Cl)ccc1Cl)C(=O)C(F)(F)F` returned a melting point of 146 °C. For the compound `Oc1cc(C(F)(F)F)nc2c(Br)cccc12`, the melting point was in the range of 136 to 137 °C. `CCCCCCCCCCCCCCCCO` returned a melting point of 51.1 °C. Regarding `N#Cc1ccc(CN2CCCCC2)cc1`, the melting point lay in the range of 38 to 40 °C.

The compound `Nc1c(F)c(F)c(Br)c(F)c1F` displayed a melting point of 59 to 61 °C. The value for `CCOC(=O)[C@]12C[C@@H](c3ccccc3)c3ccccc3[C@H]1c1ccccc1OC2=O` was 162 °C; that for `COCCOC(=O)c1ccccc1C(=O)OCCOC` was -45 °C.

With `CN(C)c1ccc(C(=O)NN)cc1`, the melting point is 175 °C. The value for `OC1(c2ccccc2)c2ccccc2Oc2ccccc21` was 158 to 162 °C; that for `C#CC(O)CCC` (stereo not drawn) was -80 °C. In the case of `c1ccc(Cc2nc3ccccc3[nH]2)cc1`, the melting point was 187 °C. The compound `C=C1C2CCC3C(CCC4C5(C)CCCC43C3OCCN3C5)(C2)C1O` (stereo not drawn) gave a melting point of 120 °C. As for `CC(C)[C@H]1NC(=O)CNC1=O`, the melting point fell in the range of 250 to 260 °C.

`COC(=O)c1occc1C` yielded a melting point of 35 °C. The compound `O=C=Nc1ccc(OC2CCOCC2)nc1` registered a melting point of 68.5 to 70.5 °C. Consider `CC1(C2CCC3C4CCC5CC(O)CCC5(C)C4CCC32C)OCCO1` (stereo not drawn), for which the melting point is 174 °C. `Cc1ccc(S(=O)(=O)c2ncsc2SCC(=O)c2ccc(Cl)cc2)cc1` yielded a melting point of 212 to 213 °C. The value for `CCCCCCCCCCCCCCCCC=O` was 36 °C; that for `C=C(C)C(=O)OC1CC2CCC1(C)C2(C)C` (stereo not drawn) was -60 °C; that for `OCC(O)CN1CCCC1` (stereo not drawn) was 43 to 48 °C. For the compound `O=[N+]([O-])c1ccccc1-n1cccc1`, the melting point amounted to 59 °C. The value for `O=C(OCC(COC(=O)c1ccccc1)OC(=O)c1ccccc1)c1ccccc1` was 76 °C; that for `O=C(Nc1cccc(Cl)c1)Nc1nnc(-c2ccc(Cl)cc2)o1` was 246 to 247 °C; that for `O=Cc1cccc2c1OCCO2` was 62 to 63 °C. Consider `COC1=CC(=O)C2(C)CCC1C2(C)C` (stereo not drawn), for which the melting point is 55 °C. `Cc1c(NC(=O)C(F)(F)C(F)(F)C(F)(F)C(F)(F)C(F)(F)C(F)(F)C(F)(F)C(F)(F)F)c(=O)n(-c2ccccc2)n1C` returned a melting point of 177 °C. For the compound `Cn1nnc2cc(CBr)ccc21`, the melting point was 120 °C. Regarding `OC(c1ccc(F)cc1)C(O)c1ccc(F)cc1` (stereo not drawn), the melting point worked out at 153 °C. The value for `COc1ccc(C2(C)C=C(C)N=N2)cc1` (stereo not drawn) was 70 °C; that for `NC(=O)c1ccccc1N1CCCCC1` was 115 to 118 °C; that for `OCc1cc2ccccc2s1` was 100 °C. The value for `Cc1ccccc1NC(=N)NC(=N)N` was 144 °C.

In turn, `Cc1cc(N)c(Cl)cc1F` came in with a melting point of 69 to 71 °C. `O=C(CCl)OC(=O)CCl`: the melting point turned out to be 57.5 °C.

Regarding `COc1ccc(C(N)=NO)cc1`, the melting point lay in the range of 119 to 121 °C. Turning to `C1CCNC1`, the melting point is -57.8 °C. Consider `C=CC(=O)OCCOCC`, for which the melting point is -47 °C. The compound `Nc1cccc(C=O)c1` came in with a melting point of 30 °C. On to `O=C1C=C(c2ccccc2)CC1`, for which the melting point is -23 °C. In turn, `CC(=O)OC1CC2CCC1(C)C2(C)C` (stereo not drawn) yielded a melting point of 29 °C. In the case of `CCC1CCC(C)C1` (stereo not drawn), the melting point is -108 °C. In turn, `O=C=N[Si](N=C=O)(N=C=O)N=C=O` returned a melting point of 26 °C. As for `C#CCOc1ccc(Cc2ccc(O)cc2)cc1`, the melting point came out at 60 °C. The value for `Cc1ccc(OCC(=O)O)c(C)c1` was 141 °C; that for `Cc1c(Cl)cccc1Nc1ncccc1C(=O)O` was 234 °C; that for `CN1CCOc2cc(Br)ccc21` was 47 to 49 °C. In turn, `O=Cc1ccc(-c2ccccn2)s1` yielded a melting point of 122 to 123 °C. For `CC(C)(C)c1cc(C(C)(C)C)c(O)c(C(C)(C)C)c1`, the melting point is 131 °C. In turn, `CC(N)Cc1ccc(O)cc1` (stereo not drawn) came in with a melting point of 126 °C.

With `C=CCNC(=O)C(C(F)(F)F)C(F)(F)F`, the melting point was found to be 117 °C. The value for `Nc1ccc(SSc2ccc(N)cc2)cc1` was 77 °C; that for `NNc1ccc(F)c(Cl)c1` was 74 °C; that for `COc1cc(C)cc(OC)c1C=O` was 93 °C.

In turn, `O=C(C(=O)c1cccc2ccccc12)c1ccccc1` yielded a melting point of 102 °C. `Clc1ccc(C(c2ccccc2Cl)C(Cl)Cl)cc1` (stereo not drawn) showed a melting point of 77 °C.

`C/C(=N\c1ccccc1O)c1c(O)c2ccccc2n(-c2ccccc2)c1=O` had a melting point of 268 to 269 °C.

In turn, `CC(C)(C)OC(=O)N1CCCC(O)C1` (stereo not drawn) gave a melting point of 68 °C. In the case of `O=C(O)COc1ccc(CO)cc1`, the melting point is 112 °C. The value for `CCCCNC(=O)OC#CCI` was 66 °C; that for `Cc1ccc(C(=S)N2CCCCC2)cc1` was 93 °C; that for `NC(=S)c1ccc(OCC(F)(F)F)nc1` was 120 to 123 °C. The value for `CN(C)c1ccc(C(/C=C2\C=Cc3ccccc3N2)c2ccccc2)cc1` (stereo not drawn) was 125 °C; that for `CCCCCCCC(=O)NO` was 78.8 °C. Compound `CC(CCc1ccccc1)NC(C)C(O)c1ccc(O)cc1` (stereo not drawn) gave a melting point of 112 °C. Regarding `O=C(O)CCCc1ccc(Br)cc1`, the melting point fell in the range of 67 to 69 °C. Consider `BrC1(c2ccccc2)c2ccccc2-c2ccccc21`, for which the melting point was found to be 97 °C. In the case of `FC(F)(F)C1(F)C(F)(F)C(F)(F)C(F)(F)C(F)(F)C1(F)F`, the melting point is -37 °C. On to `COc1ccc(NC(=O)c2ccccc2)cc1`, for which the melting point came out at 153 °C.

As for `O=C(O)c1cc(S(=O)(=O)O)ccc1O`, the melting point is 120 °C.

`CC(C)(C)OC[C@H](NC(=O)OCC1c2ccccc2-c2ccccc21)C(=O)O` gave a melting point of 127 to 131 °C. The value for `CC1CC(C)C(=O)C(C(O)CC2CC(=O)NC(=O)C2)C1` (stereo not drawn) was 119 °C; that for `CCOC(=O)c1cc2cc(OC(F)(F)F)ccc2[nH]1` was 144 to 145 °C; that for `CCCCCCCCCCCCCCCCOCC(O)CO` (stereo not drawn) was 64 °C. Compound `O=C(Cl)C1=Cc2cc(Cl)ccc2OC1` yielded a melting point of 92 to 94 °C. In the case of `S=c1nnc(-c2ccccc2)c(Nc2ccccc2Cl)[nH]1`, the melting point was 314 °C.

`Cc1ccccc1N=Nc1c(N)ccc2ccccc12` yielded a melting point of 126 °C. For the compound `CCCOC1CCC2(C)C(CCC3C2CCC2(C)C(OCCC)CCC32)C1` (stereo not drawn), the melting point was 112 to 135 °C. Regarding `COc1cc(C(=O)O)ccc1C`, the melting point turned out to be 159 °C. With `CC(=O)OC12COC1CC(O)C1(C)C(=O)C(O)C3=C(C)C(O)CC(O)(C(OC(=O)c4ccccc4)C21)C3(C)C` (stereo not drawn), the melting point fell in the range of 231 to 236 °C. `O=C(O)c1c(Cl)ccc(Cl)c1Cl` returned a melting point of 125 °C. `CCC=Cc1ccccc1`: the melting point is -43.1 °C. The value for `C1CCCSCC1` was 0.5 °C; that for `CC(NNC(=O)c1ccccc1)c1ccccc1` (stereo not drawn) was 93.5 °C; that for `CC1(C)C(C=CC(=O)OC(C(F)(F)F)C(F)(F)F)C1C(=O)OC(C#N)c1cccc(Oc2ccccc2)c1` (stereo not drawn) was 81.5 °C. The value for `Cc1occc1C(=O)Nc1ccccc1` was 110 °C; that for `CC(NC(=O)C(C)NC(=O)C(N)CCP(C)(=O)O)C(=O)O` (stereo not drawn) was 160 °C. For the compound `CCOCCOC(=O)c1ccccc1C(=O)OCCOCC`, the melting point is 34 °C.

Regarding `CC(C)C1=C(O)C(=O)C2=C(C1=O)[C@@H]1O[C@@H]1[C@H]1C(C)(C)CCC[C@]21C`, the melting point came out at 202 °C.
